These results are taken from patent publication US20090270435A1 (priority 2006, published 2009).

Where a name gives a salt, the structure may show the parent alone.

For one assay, the target named is T1, ACC1 from rat liver (Rattus norvegicus, UniProt P11497).
T1 construct: The livers (for ACC1 preparation) or skeletal muscle tissue (for ACC2 preparation) are removed; from tissue; host or cells: liver of male CD rats (fasted, then fed a high sucrose diet)
Description: Direct inhibition of ACC1 activity (14C-bicarbonate incorporation). Particulars: ACC1 from rat liver. The assay is classed as biochemical. How it is done: [1] Preparation of ACC1 and ACC2.
Male CD rats weighing 150-200 g are fasted for 2 days and then fed a high sucrose diet (AIN-76A rodent diet; Cat # D10001, Research Diets Inc., New Brunswick, N.J.), for 3 days at which time they are sacrificed by CO2 asphyxiation. The livers (for ACC1 preparation) or skeletal muscle tissue (for ACC2 preparation) are removed, rinsed in ice-cold phosphate-buffered saline (PBS), and homogenized in 5 volumes of homogenization buffer (50 mM potassium phosphate, pH 7.5, 10 mM EDTA, 10 mM 2-mercaptoethanol, 2 mM benzamidine, 0.2 mM phenylmethylsulfonylfluoride (PMSF), 5 mg/L each leupeptin, aprotinin, and antitrypsin) in a Waring® blender for 1 minute at 4° C. All subsequent operations are carried out at 4° C. The homogenate is made 3% with respect to polyethylene glycol (PEG) by the addition of 50% PEG solution and centrifuged at 20,000×g for 15 minutes. The resulting supernatant is adjusted to 5% PEG with the addition of 50% PEG solution and stirred for 5 minutes. The pellet (contains ACC activity) is collected by centrifugation at 20,000×g for 20 minutes, rinsed with Ice-cold doubly distilled water to remove excess PEG and re-suspended in one-fourth the original homogenate volume with homogenization buffer. Ammonium sulfate (200 g/liter) is slowly added with stirring. After 45 minutes the enzyme is collected by centrifugation for 30 minutes at 20,000×g, re-suspended in 10 ml of 50 mM HEPES, pH7.5, 0.1 mM DTT, 1.0 mM EDTA, and 10% glycerol and desalted on a Sephadex™ G-25 column (2.5 cm-x 50 cm) (Pharmacia, Piscataway N.J. now GE Healthcare) […] equilibrated with the same buffer. The desalted enzyme preparation is stored in aliquots at −70° C. Immediately prior to use, frozen ACC1 or ACC2 aliquots are thawed, diluted to 500 μg/ml in buffer containing 50 mM HEPES, pH7.5, 1.0 mM MgCl2, 10 mM tripotassium citrate, 2.0 mM dithiothreitol (DTT), and 0.75 mg/ml fatty acid-free bovine serum albumin (BSA) and pre-incubated at 37° C. for 30 minutes.
[2] Measurement of ACC inhibition. The procedures for measuring ACC1 inhibition and ACC2 inhibition are identical except for the source of the isozyme. For measurement of ACC activity and assessment of ACC inhibition, test compounds are dissolved in dimethylsulfoxide (DMSO) and 1 μL aliquots are placed in 0.5 ml polypropylene tubes. Control tubes contain 1 μL of DMSO alone. Tubes are incubated at 37° C. in a constant temperature water bath. […] The reaction is then initiated by the addition of 10 μL of preincubated ACC fraction prepared as described above. After 7 minutes the reaction is terminated by the addition of 50 μL of 6N HCl and a 150 μL aliquot of the reaction mixture is transferred to glass scintillation vials and evaporated to dryness at 90° C. for at least 1 hour. The dried vials are then cooled, 0.5 ml of water and 5.5 ml of Ready Safe liquid scintillation fluid (Beckman Coulter Inc., Fullerton, Calif.) are added, and the radioactivity is determined using a liquid scintillation counter. Tubes that received HCl before ACC served as blanks.
With `Cc1cc2c(cc1Cl)C(=O)CC1(CCN(C(=O)c3cccc4[nH]ncc34)CC1)O2` [Ex. J2, 6-chloro-1′-(1H-indazol-4-ylcarbonyl)-7-methylspiro[chromene-2,4′-piperidin]-4(3H)-one], the IC50 worked out at 375 nM.
For the molecule `Cc1cc2c(cc1Cl)C(=O)CC1(CCN(C(=O)c3ccc4c(C)n[nH]c4c3)CC1)O2` [Ex. F3, 6-chloro-7-methyl-1′-[(3-methyl-1H-indazol-6-yl)carbonyl]spiro[chromene-2,4′-piperidin]-4(3H)-one], the concentration for half-maximal inhibition (IC50) amounted to 107 nM.
`Cc1cc2c(cc1Cl)C(=O)CC1(CCN(C(=O)c3cccc4[nH]cnc34)CC1)O2` [Ex. L18, 1′-(1H-benzimidazol-4-ylcarbonyl)-6-chloro-7-methylspiro[chromene-2,4′-piperidin]-4(3H)-one] returned an IC50 of 2010 nM.
Regarding “6-chloro-1′-[(7-chloro-1H-indazol-5-yl)carbonyl]-7-fluorospiro[chromene-2,4′-piperidin]-4(3H)-one [Ex. B13]”, half-maximal inhibition (IC50) was put at 287 nM.
The same measure, in the same setting: under `Cc1cc2c(cc1C)C(=O)CC1(CCN(C(=O)c3ccc4cnn(C)c4c3)CC1)O2` [Ex. G2, 6,7-dimethyl-1′-[(1-methyl-1H-indazol-6-yl)carbonyl]spiro[chromene-2,4′-piperidin]-4(3H)-one] stands 167 nM; under `Cc1cc2c(cc1C)C(=O)CC1(CCN(C(=O)c3cccc4cn[nH]c34)CC1)O2` [Ex. H1, 1′-(1H-indazol-7-ylcarbonyl)-6,7-dimethylspiro[chromene-2,4′-piperidin]-4(3H)-one], 163 nM.
As for `Cc1cc2c(cc1C)C(=O)CC1(CCN(C(=O)c3ccc4c(c3)nc(N3CCCC3)n4C)CC1)O2` [Ex. L29, 6,7-dimethyl-1′-[(1-methyl-2-pyrrolidin-1-yl-1H-benzimidazol-5-yl)carbonyl]spiro[chromene-2,4′-piperidin]-4(3H)-one], the IC50 was 130 nM.
In the case of `Cc1cc2c(cc1C)C(=O)CC1(CCN(C(=O)c3cccc4c3ncn4C(C)C)CC1)O2` [Ex. L21, 1′-[(1-isopropyl-1H-benzimidazol-4-yl)carbonyl]-6,7-dimethylspiro[chromene-2,4′-piperidin]-4(3H)-one trifluoroacetic acid salt], the IC50 worked out at 670 nM.
Still for that read-out and setting: to `COc1ccc2c(c1)C(=O)CC1(CCN(C(=O)c3ccc4c(cnn4C)c3)CC1)O2` [Ex. D2, 6-methoxy-1′-[(1-methyl-1H-indazol-5-yl)carbonyl]spiro[chromene-2,4′-piperidin]-4(3H)-one] belongs 216 nM.
Regarding `COc1ccc2c(c1F)C(=O)CC1(CCN(C(=O)c3cccc4cn[nH]c34)CC1)O2` [Ex. H6, 5-fluoro-1′-(1H-indazol-7-ylcarbonyl)-6-methoxyspiro[chromene-2,4′-piperidin]-4(3H)-one], the IC50 came out at 381 nM.
In the case of `Cc1cc2c(cc1C)C(=O)CC1(CCN(C(=O)c3ccc4nn(C)cc4c3)CC1)O2` [Ex. J3, 6,7-dimethyl-1′-[(2-methyl-2H-indazolyl)carbonyl]spiro[chromene-2,4-piperidin]-4(3H)-one], the 50% inhibitory concentration (IC50) stood at 353 nM.
The molecule `Cc1cc(C(=O)N2CCC3(CC2)CC(=O)c2ccc(C#N)cc2O3)cc2cn[nH]c12` [Ex. A32, 1′-[(7-methyl-1H-indazol-5-yl)carbonyl]H-oxo-3,4-dihydrospiro[chromene-2,4′-piperidine]-7-carbonitrile] showed an IC50 of 277 nM.
`Cc1cc2c(cc1C)C(=O)CC1(CCN(C(=O)c3ccc4c(c3)[nH]c(=O)n4C)CC1)O2` [Ex. L32, 6,7-dimethyl-1′-[(1-methyl-2-oxo-2,3-dihydro-1H-benzimidazol-5-yl)carbonyl]spiro[chromene-2,4′-piperidin]-4(3H)-one]: the midpoint of inhibition, the IC50, lay at 190 nM.
“6-chloro-1′-[(7-chloro-1H-indazol-5-yl)carbonyl]spiro[chromene-2,4′-piperidin]-4(3H)-one [Ex. B8]”: the half-inhibitory concentration (IC50) came out at 166 nM.
Still for that read-out and setting: to `Cc1cc(C(=O)N2CCC3(CC2)CC(=O)c2cc(S(C)(=O)=O)ccc2O3)cc2cn[nH]c12` [Ex. A35, 1′-[(7-methyl-1H-indazol-5-yl)carbonyl]-6-(methylsulfonyl)spiro[chromene-2,4′-piperidin]-4(3H)-one] belongs 1110 nM; to “5,7-dichloro-1′-[(7-chloro-1H-indazol-5-yl)carbonyl]spiro[chromene-2,4′-piperidin]-4(3H)-one [Ex. B9]”, 180 nM; to `COc1cc(Cl)c2c(c1)OC1(CCN(C(=O)c3cc(C)c4[nH]ncc4c3)CC1)CC2=O` [Ex. A6, 5-chloro-7-methoxy-1′-[(7-methyl-1H-indazol-5-yl)carbonyl]spiro[chromene-2,4′-piperidin]-4(3H)-one], 31.9 nM.
With `COc1cccc2c1C(=O)CC1(CCN(C(=O)c3ccc4c(Cl)c[nH]c4c3)CC1)O2` [Ex. L6, 1′-[(3-chloro-1H-indol-6-yl)carbonyl]-5-methoxyspiro[chromene-2,4′-piperidin]-4(3H)-one], the IC50 is 47.3 nM.
Molecule `Cc1cc2c(cc1C)C(=O)CC1(CCN(C(=O)c3ccc4c(cnn4C)c3)CC1)O2` [Ex. D1, 6,7-dimethyl-1′-[(1-methyl-1H-indazol-5-yl)carbonyl]spiro[chromene-2,4′-piperidin]-4(3H)-one] yielded an IC50 of 57.9 nM.
In turn, `Cc1cc2c(cc1C)C(=O)CC1(CCN(C(=O)c3ccc4cc[nH]c4c3)CC1)O2` [Ex. L2, 1′-(1H-indol-6-ylcarbonyl)-6,7-dimethylspiro[chromene-2,4′-piperidin]-4(3H)-one trifluoroacetic acid salt] yielded an IC50 of 155 nM.

Staying with this assay, now noted: Table of Examples M1-M36.
`Cc1cc2c(cc1C)C(=O)CC1(CCN(C(=O)c3cccc(-c4cc[nH]n4)c3)CC1)O2` [Ex. M2, 6,7-dimethyl-1′-[3-(1H-pyrazol-3-yl)benzoyl]spiro[chromene-2,4′-piperidin]-4(3H)-one] returned an IC50 of 73.6 nM.
On the same count and under the same terms, under `COc1cc2c(c(OC)c1OC)C(=O)CC1(CCN(C(=O)c3cccc(-c4cc[nH]n4)c3)CC1)O2` [Ex. M21, 5,6,7-trimethoxy-1′-[3-(1H-pyrazol-3-yl)benzoyl]spiro[chromene-2,4′-piperidin]-4(3H)-one] stands 439 nM; under `O=C1CC2(CCN(C(=O)c3cccc(-c4cc[nH]n4)c3)CC2)Oc2cc(F)c(Cl)cc21` [Ex. M24, 6-chloro-7-fluoro-1′-[3-(1H-pyrazol-3-yl)benzoyl]spiro[chromene-2,4′-piperidin]-4(3H)-one], 478 nM; under `CNC(=O)c1ccc2c(c1)C(=O)CC1(CCN(C(=O)c3cccc(-c4cc[nH]n4)c3)CC1)O2` [Ex. M4, N-methyl-4-oxo-1′-[3-(1H-pyrazol-3-yl)benzoyl]-3,4-dihydrospiro[chromene-2,4′-piperidine]-6-carboxamide], 110 nM.
For `O=C1CC2(CCN(C(=O)c3cccc(-c4cc[nH]n4)c3)CC2)Oc2cc(Cl)c(Cl)cc21` [Ex. M8, 6,7-dichloro-1′-[3-(1H-pyrazol-3-yl)benzoyl]spiro[chromene-2,4′-piperidin]-4(3H)-one], inhibition was half-maximal at 178 nM (IC50).
`O=C1CC2(CCN(C(=O)c3cccc(-c4cc[nH]n4)c3)CC2)Oc2ccc(C(F)(F)F)cc21` [Ex. M19, 1′-[3-(1H-pyrazol-3-yl)benzoyl]-6-(trifluoromethyl)spiro[chromene-2,4′-piperidin]-4(3H)-one] registered an IC50 of 418 nM.

Still in this assay, the particulars now being: Table of Examples P1-P15.
As to `CCOc1ccc(-c2cc[nH]n2)cc1C(=O)N1CCC2(CC1)CC(=O)c1cc(C)c(C)cc1O2` [Ex. P7, 1′-[2-ethoxy-5-(1H-pyrazol-3-yl)benzoyl]-6,7-dimethylspiro[chromene-2,4′-piperidin]-4(3H)-one trifluoroacetic acid salt], the IC50 is under 3000 nM.
As for `Cc1cc2c(cc1C)C(=O)CC1(CCN(C(=O)c3cc(-c4cc[nH]n4)ccc3O)CC1)O2` [Ex. P6, 1′-[2-hydroxy-5-(1H-pyrazol-3-yl)benzoyl]-6,7-dimethylspiro[chromene-2,4′-piperidin]-4(3H)-one trifluoroacetic acid salt], the IC50 is under 3000 nM.

One may read the IC50 as the midpoint of a concentration-inhibition curve.
